Tests used:
[1] = target: Neutrophil collagenase (Homo sapiens, UniProt P22894); assay: Inhibition of MMP8 (unknown origin)
[2] = target: Stromelysin-1 (Homo sapiens, UniProt P08254); assay: Inhibition of MMP3 (unknown origin)
[3] = target: T1, Interstitial collagenase (Homo sapiens, UniProt P03956); assay: Inhibition of MMP1 (unknown origin)
T1 sequence (P03956 whole entry): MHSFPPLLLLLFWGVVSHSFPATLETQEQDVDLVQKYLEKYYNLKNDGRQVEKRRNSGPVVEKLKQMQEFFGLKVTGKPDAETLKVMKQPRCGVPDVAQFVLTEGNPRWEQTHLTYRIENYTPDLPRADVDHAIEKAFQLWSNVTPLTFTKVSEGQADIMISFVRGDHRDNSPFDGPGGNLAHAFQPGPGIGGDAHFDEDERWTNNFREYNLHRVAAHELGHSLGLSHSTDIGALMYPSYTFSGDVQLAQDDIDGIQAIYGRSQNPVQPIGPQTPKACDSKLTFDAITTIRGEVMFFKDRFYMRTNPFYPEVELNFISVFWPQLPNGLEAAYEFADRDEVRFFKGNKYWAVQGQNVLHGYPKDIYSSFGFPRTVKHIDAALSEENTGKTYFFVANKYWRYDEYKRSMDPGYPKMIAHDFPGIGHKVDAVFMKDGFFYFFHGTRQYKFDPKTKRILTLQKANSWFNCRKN

[4] = target: 72 kDa type IV collagenase (Homo sapiens, UniProt P08253); assay: Inhibition of MMP2 (unknown origin)
[5] = target: Matrix metalloproteinase-9 (Homo sapiens, UniProt P14780); assay: Inhibition of MMP9 (unknown origin)
[6] = target: T2, Matrilysin (Homo sapiens, UniProt P09237); assay: Inhibition of MMP7 (unknown origin)
T2 sequence (P09237 whole entry): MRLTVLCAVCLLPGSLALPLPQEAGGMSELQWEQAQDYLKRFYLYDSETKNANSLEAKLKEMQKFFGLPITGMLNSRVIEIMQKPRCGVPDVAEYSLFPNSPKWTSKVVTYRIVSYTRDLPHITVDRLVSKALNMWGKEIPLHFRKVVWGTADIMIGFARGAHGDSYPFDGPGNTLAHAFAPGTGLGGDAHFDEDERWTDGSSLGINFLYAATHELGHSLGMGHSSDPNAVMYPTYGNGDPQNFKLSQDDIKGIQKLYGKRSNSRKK

[7] = target: Macrophage metalloelastase (Homo sapiens, UniProt P39900); assay: Inhibition of MMP12 (unknown origin)
[8] = target: Matrix metalloproteinase-14 (Homo sapiens, UniProt P50281); assay: Inhibition of MMP14 (unknown origin)
[9] = target: T3, Matrix metalloproteinase-17 (Homo sapiens, UniProt Q9ULZ9); assay: Inhibition of MMP17 (unknown origin)
T3 sequence (Q9ULZ9 whole entry): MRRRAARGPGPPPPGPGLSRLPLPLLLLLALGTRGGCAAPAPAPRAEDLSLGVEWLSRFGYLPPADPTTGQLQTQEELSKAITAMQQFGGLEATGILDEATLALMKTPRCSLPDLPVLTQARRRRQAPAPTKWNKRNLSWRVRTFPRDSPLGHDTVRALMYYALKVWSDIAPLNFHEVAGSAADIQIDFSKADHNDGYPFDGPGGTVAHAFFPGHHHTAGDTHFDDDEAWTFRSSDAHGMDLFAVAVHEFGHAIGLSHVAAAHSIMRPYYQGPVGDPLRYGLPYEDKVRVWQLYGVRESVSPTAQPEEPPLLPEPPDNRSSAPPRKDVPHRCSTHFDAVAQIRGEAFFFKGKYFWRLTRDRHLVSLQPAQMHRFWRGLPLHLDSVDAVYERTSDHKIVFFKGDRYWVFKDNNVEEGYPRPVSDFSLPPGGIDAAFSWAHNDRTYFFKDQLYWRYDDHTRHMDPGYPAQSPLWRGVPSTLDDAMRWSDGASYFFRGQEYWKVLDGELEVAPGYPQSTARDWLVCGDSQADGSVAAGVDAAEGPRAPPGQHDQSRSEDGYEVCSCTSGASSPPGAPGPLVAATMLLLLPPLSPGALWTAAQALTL

Neutrophil collagenase, sequence (P22894 whole entry): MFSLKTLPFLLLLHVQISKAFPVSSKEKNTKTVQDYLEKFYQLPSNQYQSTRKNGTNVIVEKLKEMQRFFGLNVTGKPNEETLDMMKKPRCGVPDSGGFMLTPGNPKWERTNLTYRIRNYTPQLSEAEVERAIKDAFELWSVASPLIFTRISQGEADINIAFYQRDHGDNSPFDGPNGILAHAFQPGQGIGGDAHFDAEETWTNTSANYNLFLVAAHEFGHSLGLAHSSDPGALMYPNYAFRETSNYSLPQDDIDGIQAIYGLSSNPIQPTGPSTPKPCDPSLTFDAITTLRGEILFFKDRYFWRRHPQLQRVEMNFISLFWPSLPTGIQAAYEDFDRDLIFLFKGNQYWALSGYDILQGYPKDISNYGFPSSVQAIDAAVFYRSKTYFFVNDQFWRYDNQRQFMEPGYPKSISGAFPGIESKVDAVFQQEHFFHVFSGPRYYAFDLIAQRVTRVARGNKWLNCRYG
Stromelysin-1, sequence (P08254 whole entry): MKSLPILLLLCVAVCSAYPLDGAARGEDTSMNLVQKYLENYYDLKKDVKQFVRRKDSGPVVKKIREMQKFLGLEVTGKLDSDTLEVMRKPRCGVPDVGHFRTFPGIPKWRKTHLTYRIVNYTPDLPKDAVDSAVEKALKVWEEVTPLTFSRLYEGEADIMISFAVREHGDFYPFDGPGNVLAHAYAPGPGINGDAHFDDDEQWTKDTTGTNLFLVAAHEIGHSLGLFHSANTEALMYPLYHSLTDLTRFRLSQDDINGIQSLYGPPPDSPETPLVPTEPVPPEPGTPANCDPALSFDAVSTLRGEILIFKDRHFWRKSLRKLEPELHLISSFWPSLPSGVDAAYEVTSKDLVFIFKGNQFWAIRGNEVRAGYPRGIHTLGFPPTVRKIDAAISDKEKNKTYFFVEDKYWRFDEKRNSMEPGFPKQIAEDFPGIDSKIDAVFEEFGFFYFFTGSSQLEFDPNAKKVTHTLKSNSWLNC
72 kDa type IV collagenase, sequence (P08253 whole entry): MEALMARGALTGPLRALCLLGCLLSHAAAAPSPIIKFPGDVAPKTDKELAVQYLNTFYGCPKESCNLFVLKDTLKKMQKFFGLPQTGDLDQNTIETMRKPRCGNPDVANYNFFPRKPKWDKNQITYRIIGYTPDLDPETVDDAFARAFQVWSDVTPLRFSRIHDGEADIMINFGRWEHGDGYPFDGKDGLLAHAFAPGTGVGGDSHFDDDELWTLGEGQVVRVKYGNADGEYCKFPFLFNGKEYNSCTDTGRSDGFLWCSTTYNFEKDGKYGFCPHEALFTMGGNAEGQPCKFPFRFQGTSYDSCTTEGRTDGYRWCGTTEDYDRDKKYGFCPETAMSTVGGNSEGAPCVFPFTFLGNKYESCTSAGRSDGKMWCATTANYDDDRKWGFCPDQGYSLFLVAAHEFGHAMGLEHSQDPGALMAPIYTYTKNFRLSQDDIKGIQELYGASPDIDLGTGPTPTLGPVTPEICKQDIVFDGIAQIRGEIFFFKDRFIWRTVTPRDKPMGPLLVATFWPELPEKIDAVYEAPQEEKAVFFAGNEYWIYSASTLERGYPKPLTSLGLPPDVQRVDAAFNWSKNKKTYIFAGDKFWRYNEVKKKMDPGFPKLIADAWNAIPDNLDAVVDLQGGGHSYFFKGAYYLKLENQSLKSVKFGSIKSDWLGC
Matrix metalloproteinase-9, sequence (P14780 whole entry): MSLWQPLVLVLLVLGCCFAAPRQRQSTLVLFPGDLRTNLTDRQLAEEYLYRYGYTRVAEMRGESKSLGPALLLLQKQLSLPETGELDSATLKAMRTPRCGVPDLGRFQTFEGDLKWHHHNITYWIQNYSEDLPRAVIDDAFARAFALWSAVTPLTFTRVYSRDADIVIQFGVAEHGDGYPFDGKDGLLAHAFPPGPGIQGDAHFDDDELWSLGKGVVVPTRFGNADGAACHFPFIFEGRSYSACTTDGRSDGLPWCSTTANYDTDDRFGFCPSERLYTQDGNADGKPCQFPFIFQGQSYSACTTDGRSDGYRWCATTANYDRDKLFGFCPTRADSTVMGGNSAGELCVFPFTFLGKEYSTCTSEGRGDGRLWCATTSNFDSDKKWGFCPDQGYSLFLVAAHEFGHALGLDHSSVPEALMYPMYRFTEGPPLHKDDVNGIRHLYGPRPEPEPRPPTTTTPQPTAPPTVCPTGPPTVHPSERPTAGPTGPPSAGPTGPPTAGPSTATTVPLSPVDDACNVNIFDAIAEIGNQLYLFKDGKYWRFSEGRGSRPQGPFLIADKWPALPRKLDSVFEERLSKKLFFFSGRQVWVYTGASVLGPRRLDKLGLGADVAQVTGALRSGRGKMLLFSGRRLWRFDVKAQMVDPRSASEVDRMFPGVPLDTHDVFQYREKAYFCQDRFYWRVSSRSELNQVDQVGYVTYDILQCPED
Macrophage metalloelastase, sequence (P39900 whole entry): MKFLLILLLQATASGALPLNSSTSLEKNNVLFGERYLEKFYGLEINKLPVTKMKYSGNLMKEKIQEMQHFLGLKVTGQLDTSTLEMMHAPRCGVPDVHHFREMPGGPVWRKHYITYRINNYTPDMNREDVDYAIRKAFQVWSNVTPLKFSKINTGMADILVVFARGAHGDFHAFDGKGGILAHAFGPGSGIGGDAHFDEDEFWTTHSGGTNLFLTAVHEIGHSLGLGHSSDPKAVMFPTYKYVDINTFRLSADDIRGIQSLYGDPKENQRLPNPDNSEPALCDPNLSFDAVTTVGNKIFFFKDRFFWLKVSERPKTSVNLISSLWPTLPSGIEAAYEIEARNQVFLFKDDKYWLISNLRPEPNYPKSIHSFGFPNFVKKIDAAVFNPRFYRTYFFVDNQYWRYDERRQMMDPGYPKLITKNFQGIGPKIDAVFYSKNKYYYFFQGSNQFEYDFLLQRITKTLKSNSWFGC

SMILES | IC50 [1] [nM] | IC50 [2] [nM] | Ki [3] [nM] | IC50 [3] [nM] | IC50 [4] [nM] | IC50 [5] [nM] | IC50 [6] [nM] | IC50 [7] [nM] | IC50 [8] [nM] | IC50 [9] [nM]
O=C1N=C(O)NC(=O)[C@@]1(c1ccccc1)N1CCC(CCO)CC1 | 1700 | 30000 |  |  |  |  |  |  |  | 
O=C(CC1(S(=O)(=O)c2ccc(Oc3ccccc3)cc2)CCOCC1)NO |  |  | 23 |  |  |  |  |  |  | 
CC#CCOc1ccc(Oc2ccc(S(=O)(=O)NC(C(=O)NO)C(C)C)cc2)cc1 (stereo not drawn) |  |  |  | 40 |  |  |  |  |  | 
CN(C)c1ccc(-c2cn(-c3ccc(S(=O)(=O)C4(C(=O)NO)CCNCC4)cc3)nn2)cc1 |  |  |  |  | 1.7 | 43.9 |  |  |  | 
CC(C)N(C)c1ccc(-c2cn(-c3ccc(S(=O)(=O)C4(C(=O)NO)CCNCC4)cc3)nn2)cc1 |  |  |  |  | 3 | 346 |  |  |  | 
O=C(OCc1ccccc1)c1cn2c(=O)n(Cc3ccccc3)c(=O)cc2s1 | > 30000 | > 30000 |  | > 30000 | > 30000 | > 30000 | > 30000 | > 30000 | > 30000 | > 30000
Cn1c(=O)n(Cc2ccc(C(=O)O)cc2)c(=O)c2cc(C#CCc3ccccc3)ccc21 | > 30000 | > 30000 |  | > 30000 | > 30000 | > 30000 | > 30000 | > 30000 | > 30000 | > 30000
NC(=O)CC1CCCc2sc3nc(C(=O)NCc4ccc5c(c4)NC(=O)CO5)[nH]c(=O)c3c21 (racemic) |  | > 2500 |  | > 2500 | > 2500 | > 2500 | > 2500 | > 2500 | > 2500 | 

— ChEMBL document CHEMBL3352020, “Targeting matrix metalloproteinases: exploring the dynamics of the s1' pocket in the design of selective, small molecule inhibitors” (J Med Chem, 2014)
